Values of other authors, collected in patent US20100003364A1, “REDUCED-HANGOVER ALCOHOLIC BEVERAGE COMPRISING TURMERIC” (priority 2006, published 2010).

details: biological activities listed for compounds from Curcuma longa L.

Compound	Activity
Methylcurcumin	L. amazonensis
COc1cc(/C=C/C(=O)CC(=O)/C=C/c2ccc([O-])c(OC)c2)ccc1[O-].[Na+].[Na+] [Sodium curcuminate]	anti-inflammatory
O=C(C=Cc1ccc(O)cc1)CC(=O)C=Cc1ccc(O)cc1 [Bisdemethoxy curcumin]	antioxidant
CC(C)=CC(=O)CC(C)c1ccc(C)cc1 (stereo not shown) [Ar-turmerone]	snakebite
